From publication PMC12297887, “Enhanced Anticancer Potential of Pd(II)-Thiosemicarbazone Complexes: Selectivity, Mechanisms, and 3D Models” (Pharmaceutics, 2025)

How the values were obtained:
[1] = system: MDA-MB-231 (triple-negative breast cancer); assay: Cell viability (MTT), MDA-MB-231; type: cell-based, human
Experimental: (§1) The cell lines used in the tests were A2780 (ovarian cancer), A2780cis (ovarian cisplatin resistant cancer), A549 (lung cancer), MRC5 (non-tumoral lung […]), MDA-MB-231 (triple-negative breast cancer), MCF-7 (breast cancer), SK-BR-3 (breast cancer), MCF-10A (non-tumoral breast cancer), and A375 (skin cancer—melanoma).
(§2) The MCF-10A cell line was grown in DMEM/F-12 culture medium, supplemented with 5% horse serum, human epidermal growth factor (EGF) (20 ng/mL), hydrocortisone (0.05 mg/mL), insulin (0.01 mg/mL), penicillin (1%), streptomycin (1%), and L-glutamine (2 mM). The A2780, A2780cis, and MCF-7 cell lines were cultured in RPMI-1640 medium, and the other lines in DMEM medium; both culture media were supplemented with 10% (v/v) FBS (fetal bovine serum), antibiotics, and antimycotics. Cultivation was carried out in culture flasks stored in a humid incubator at 37 °C, with an atmosphere of 5% CO2.
(§3) The plates were kept for 24 h in a humidified incubator (37 °C, 5% CO2), after which 0.75 μL of a DMSO solution (0.5% v/v) containing the compounds of interest was added to each well. The plates were then incubated for a further 48 h. The ratio of viability of cells was obtained using the MTT method. Through its reduction via the mitochondrial process, purple formazan is formed, which is proportional to cell viability. After incubating the microplates, 50 μL of a solution of MTT (1 mg∙mL^−1) in PBS was added to each well and the cells were incubated again in the oven for 4 h. Finally, the solution was removed from each well and 100 μL of isopropyl alcohol with 10% DMSO was added to solubilize the Formazan crystals. Absorbance measurements (540 nm) were then taken in each well using a BioTek EPOCH spectrophotometer (BioTek, Winooski, WT, USA). The data obtained was analyzed using Excel 360 and GraphPadPrism 8.0.2.

[2] = system: A2780 (ovarian cancer); assay: Cell viability (MTT), A2780; type: cell-based
Experimental: as §1, §2, §3

[3] = system: A2780cis cells; assay: Clonogenic assay; type: cell-based; conditions: concentrations in relation to the IC50 of each complex, five days of treatment
Experimental: For this test, 600 cells of the A2780cis strain were added to each well of a six-well microplate. After incubating for 24 h in a 5% CO2 atmosphere, different concentrations of the compounds were added to the wells and incubated again for five days. After this period, the culture medium was changed and the plates were incubated for a further five days. Finally, the culture medium was removed and washed with PBS. Subsequently, a solution of methanol and acetic acid (3:1 v/v) was added for five minutes, and then the cells were stained with methyl violet solution. The plates were washed with distilled water. After drying, they were photographed using the iBright™ FL1500 (ThermoFisher, Waltham, MA, USA) and analyzed using ImageJ 1.53 software.

[4] = system: A549 (lung cancer); assay: Cell viability (MTT), A549; type: cell-based; conditions: 48 h of incubation, MTT
Experimental: as §1, §2, §3

[5] = system: A2780cis cells; assay: Cell viability (LIVE/DEAD kit); type: cell-based; conditions: beginning at ½ × IC50, 48 h
Experimental: 1.0 × 10^4 A2780cis cells were added to each well in a 96-well plate. After 24 h, the cells were treated with different concentrations of the compound and incubated again for 48 h. Then 100 µL of the LIVE/DEAD® solution prepared as described by the manufacturer was added. The images were acquired using a fluorescence microscope (CELENA® S logos biosystems) with a 4× objective, carried out in triplicate. Live and dead cells were counted using ImageJ 1.53 software and the IC50 value was calculated using GraphPad Prism 8.0.2.

[6] = system: A2780cis cells; assay: Cell morphology assay (DAPI / Green Plasma fluorescence); type: cell-based; conditions: starting at ½ × IC50, 48 h
Experimental: For morphological analysis by fluorescence with Green Plasma and DAPI, 1 × 10^4 cells/well of A2780cis were added to 96-well plates and incubated for 24 h. After this, the cells were treated with different concentrations of the compound and incubated for 48 h. Then the medium was removed and the cells were fixed with methanol for 5 min, and 50 μL of CellMasK Green Plasma membrane was added. After 5 min, 50 µL of DAPI was added and incubated at room temperature for a further 10 min. Images were taken using a fluorescence microscope (CELENA® S Logos Biosystems, Anyang-si, Republic of Korea) with the appropriate filters.

[7] = system: A2780cis spheroids; assay: Three-dimensional (spheroid) assay; type: cell-based; conditions: for cell death within spheroids (DAPI/PI staining): 48 h; for spheroid morphology (brightfield): 48 h of treatment
Experimental: The 3D culture assay was performed with the A2780cis cell line using the Greiner Bio-One 96-well magnetic bioprinting kit. In total, 150 µL of magnetic nanoparticles were added to the cells grown in a 25 cm^2 bottle and incubated for 24 h. Then, 3750 cells/well were added to repellent 96-well plates, taken to the magnetic drive, and incubated for 4 days for the formation of […]. Once the spheroids had been obtained, they were treated with the compound PdB1 at different concentrations. Finally, images of the spheroids were recorded at 0 and 48 h, and images with fluorescence markers (DAPI and PI) were also obtained for the 48 h period using a logos biosystems CELENA® S fluorescence microscope.

[8] = system: MRC5 (non-tumoral lung); assay: Cell viability (MTT), MRC5; type: cell-based; conditions: 48 h of incubation, non-tumor lung fibroblast
Experimental: as §1, §2, §3

[9] = system: A2780cis cells; assay: Apoptosis assay (PE-Annexin V/7AAD, flow cytometry); type: cell-based; conditions: ½ × IC50, 24 h; control 86.4%
Experimental: Apoptosis in A2780cis cells induced by the complexes was analyzed by flow cytometry; a PE-Annexin-V Apoptosis Detection kit (BD Biosciences) was employed. The cells (1 × 10^5 cells/well) were seeded in a 24-well plate. After incubation for 24 h, the cells were exposed to increasing concentrations of complex PdB1 for 24 h. After treatment, the cells were collected, centrifuged at 2000 rpm and 4 °C for 5 min, washed with ice-cold PBS, and resuspended in 150 µL of binding buffer. PE-Annexin V (2.5 µL) and 7ADD (2.5 µL) were added, which was followed by incubation in the dark at room temperature for 20 min. Then, the cells were centrifuged at 2000 rpm and 4 °C for 5 min, resuspended in 400 µL of binding buffer, and analyzed on an Accuri C6 (BD Biosciences) flow cytometer; 10,000 events were recorded. Fluorescence was quantified in triplicate with the Cell Quest software (BD Biosciences). Untreated cells were the negative control.

[10] = system: MCF-7 (breast cancer); assay: Cell viability (MTT), MCF-7; type: cell-based, human
Experimental: as §1, §2, §3

[11] = system: SK-BR-3 (breast cancer); assay: Cell viability (MTT), SK-BR-3; type: cell-based, human
Experimental: as §1, §2, §3

[12] = system: A2780cis (ovarian cisplatin resistant cancer); assay: Cell viability (MTT), A2780cis; type: cell-based
Experimental: as §1, §2, §3

[13] = system: A375 (skin cancer, melanoma); assay: Cell viability (MTT), A375; type: cell-based; conditions: 48 h of incubation
Experimental: as §1, §2, §3

[14] = system: MCF-10A (non-tumoral breast); assay: Cell viability (MTT), MCF-10A; type: cell-based, human; conditions: 48 h of incubation, non-tumorigenic breast line, read-out: IC50 MFC-10A
Experimental: as §1, §2, §3

CC(/C=C/c1ccccc1)=[N+]1NC(N)=[S+][Pd-]1([Cl])[PH](c1ccccc1)(c1ccccc1)c1ccccc1.[Cl-] [PdB1, [PdCl(L-B1)(PPh3)]Cl]
IC50 ([1]; 48 h of incubation, MTT): 1450 ± 100 nM
Selectivity index (SI) MDA-MB-231 ([1]; IC50 MRC5 / IC50 MDA-MB-231): 1.2
IC50 ([2]; 48 h of incubation, MTT): 120 ± 10 nM
Selectivity index (SI) A2780 ([2]; IC50 MRC5 / IC50 A2780): 14.2
colony formation [3]: significantly reduced colony formation
IC50 [4]: 44.8 ± 2 µM
LIVE/DEAD viability [5]: marked increase in red-fluorescing (non-viable) cells
nuclear morphology (DAPI staining) [6]: chromatin condensation and nuclear fragmentation
cell death within spheroids (DAPI/PI staining) ([7]; 12.5 µM): significant level of cell death
cell death within spheroids (DAPI/PI staining) ([7]; 25 µM): complete disintegration
spheroid morphology (brightfield) ([7]; 25 µM): marked reduction in compaction and cohesion
spheroid morphology (brightfield) ([7]; lower concentrations): continued spheroid growth
IC50 [8]: 1700 ± 200 nM
Q2-LL (viable cells, Q3 in the text) [9]: 37.1%
IC50 ([10]; 48 h of incubation, MTT): 3.79 ± 0.4 µM
Selectivity index (SI) MCF-7 ([10]; IC50 MRC5 / IC50 MCF-7): 0.4
IC50 ([11]; 48 h of incubation, MTT): 1420 ± 70 nM
Selectivity index (SI) SK-BR-3 ([11]; IC50 MRC5 / IC50 SK-BR-3): 1.2
IC50 ([12]; 48 h of incubation, MTT): 200 ± 10 nM
resistance factor (RF) ([12]; IC50(A2780cis)/IC50(A2780)): 1.66
Selectivity index (SI) A2780cis ([12]; IC50 MRC5 / IC50 A2780cis): 8.5
IC50 [13]: 1340 ± 80 nM
IC50 [14]: 1580 ± 70 nM
